Assay results taken from patent US12527782B2, “Use of hexokinase 2/mitochondria-detaching compounds for treating hexokinase-2 (HK2)-expressing cancers” (Vidac Pharma Ltd., priority 2016, dated 2026).

Key:
HeLa cells [1] = assay: Apoptosis induction in HeLa cells (FACS, propidium iodide and annexin V); type: cell-based; conditions: Homo sapiens, 48 hr incubation
Description: FIG. 12. Apoptosis induction in HeLa cells following 48 hr incubation with Compound (1) IC50=70 nM. Apoptosis was evaluated by FACS, labeling the cells with propidium iodide and annexin V.
FIG. 13. Apoptosis induction in HeLa cells following 48 hr incubation with Compound (1). IC50=70 nM. Apoptosis was evaluated by FACS, labeling the cells with propidium iodide and annexin V.

HeLa cells [2] = assay: Lactate levels in culture media of HeLa cells (BioVision kit); type: cell-based; conditions: 20 μM
Description: FIG. 14. Lactate levels in the culture media of HeLa cells incubated with 20 μM Compound (1). Lactate levels were assayed with a BioVision kit (Catalog #K607-100).

- IC50 (HeLa cells [1]): 70 nM
SMILES: O=C(N1CCN(c2ccccc2)CC1)N1c2ccccc2Oc2ccccc21 [Compound (1)]
- lactate levels in the culture media (HeLa cells [2]): lowered lactate levels
